This assay addresses T1, human TMEM16A (TMEM16Aabc variant) (Homo sapiens, UniProt Q5XXA6, DEL476-501).
T1 sequence (Q5XXA6 with tags, fused parts or gaps isoform Q5XXA6-5 DEL539-564): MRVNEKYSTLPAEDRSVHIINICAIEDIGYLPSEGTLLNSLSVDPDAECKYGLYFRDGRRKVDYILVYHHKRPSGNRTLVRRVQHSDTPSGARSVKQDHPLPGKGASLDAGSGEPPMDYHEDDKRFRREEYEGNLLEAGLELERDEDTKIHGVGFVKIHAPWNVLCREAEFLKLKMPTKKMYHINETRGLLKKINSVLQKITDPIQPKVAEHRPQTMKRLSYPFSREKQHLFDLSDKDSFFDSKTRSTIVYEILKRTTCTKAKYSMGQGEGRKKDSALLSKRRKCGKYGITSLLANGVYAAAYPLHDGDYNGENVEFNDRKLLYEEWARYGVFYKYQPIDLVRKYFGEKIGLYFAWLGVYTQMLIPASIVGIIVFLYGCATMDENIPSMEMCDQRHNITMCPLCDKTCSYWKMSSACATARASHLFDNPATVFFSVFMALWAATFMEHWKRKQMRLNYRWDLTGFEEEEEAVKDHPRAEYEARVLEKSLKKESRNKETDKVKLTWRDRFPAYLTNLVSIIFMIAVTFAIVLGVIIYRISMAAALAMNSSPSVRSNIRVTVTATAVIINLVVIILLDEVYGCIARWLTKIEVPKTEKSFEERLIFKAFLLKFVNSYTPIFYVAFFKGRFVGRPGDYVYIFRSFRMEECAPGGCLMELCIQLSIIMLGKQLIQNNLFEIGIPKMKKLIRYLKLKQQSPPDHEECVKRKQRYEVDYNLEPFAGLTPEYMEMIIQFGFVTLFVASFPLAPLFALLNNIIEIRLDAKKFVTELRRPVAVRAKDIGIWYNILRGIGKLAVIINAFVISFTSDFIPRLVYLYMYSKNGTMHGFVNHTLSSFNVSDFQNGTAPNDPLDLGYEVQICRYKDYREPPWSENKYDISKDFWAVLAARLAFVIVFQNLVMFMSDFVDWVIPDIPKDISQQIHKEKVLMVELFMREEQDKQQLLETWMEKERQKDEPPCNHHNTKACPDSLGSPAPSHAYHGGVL
Nature of the assay: Automated whole-cell patch clamp (Qpatch) TMEM16A potentiator assay in recombinant FRT cells. The class given is cell-based. As to conditions: for activation at 3.33 µM: percentage increase of baseline TMEM16A current, minimum n = 2, read-out: % Potentiation @ 3.33 uM Avg; for EC50: minimum n = 2. As to the method:
Automated Whole-Cell Patch Clamp Assay to Detect TMEM16A Activity in Recombinant Cells
Fisher rat thyroid (FRT) cells stably expressing human TMEM16A (TMEM16Aabc variant; Dr Luis Galietta, Insituto Giannina, Italy) were cultured in T-75 flasks in Hams F-12 media with Coon's modification (Sigma) supplemented with 10% (v/v) foetal bovine serum, penicillin-streptomycin (10,000 U/mL/10000 μg/mL), G-418 (750 μg/mL), L-glutamine (2 mM) and sodium bicarbonate solution (7.5% v/v). At ˜90% confluence cells were harvested for experiments by detachment with a 2:1 (v/v) mixture of Detachin (BMS Biotechnology) and 0.25% (w/v) trypsin-EDTA.
FRT-TMEM16A cells were whole-cell patch clamped using an automated planar patch clamp system (Qpatch, Sophion). Briefly, once high resistance (GOhm) seals were established between the cells and the planar recording array the patch was ruptured using suction pulses to establish the whole-cell recording configuration of the patch clamp technique. The assay employed the following solutions (all reagents Sigma): Intracellular solution (mM): N-methyl-D-glucamine 130, CaCl2 18.2, MgCl2 1, HEPES 10, EGTA 10, BAPTA 20, Mg-ATP 2, pH 7.25, 325 mOsm with sucrose.
Extracellular solution (mM): N-methyl-D-glucamine 130, CaCl2 2, MgCl2 1, HEPES 10, pH 7.3, 320 mOsm with sucrose.
The intracellular solution buffers intracellular calcium at levels required to give ˜20% activation of the maximal TMEM16A mediated current (E020 for calcium ions). Cells were voltage clamped at a holding potential of −70mV and a combined voltage step (to +70 mV)/ramp (−90 my to +90 mV) was applied at 0.05 Hz. After a period of current stabilisation test compounds, solubilised in 100% (v/v) DMSO and subsequently diluted into extracellular solution, were applied to generate a cumulative concentration response curve. Each concentration of test compound was incubated for 5 minutes before addition of the next concentration. After the final concentration was tested a supramaximal concentration of either a known active positive modulator or the TMEM16A inhibitor, CaCCinhA01 (Del La Fuente et al, 2008) was added to define the upper and lower limits of the assay.
Compound activity was quantified by measuring the increase in current upon compound addition and expressing this as a percentage increase of baseline TMEM16A current level.
Peak TMEM16A current at +70 mV was plotted as a function of time over the assay period. Baseline current (IBL) was measured after a period of stabilisation. The increase in current for each compound addition was determined by taking the peak current during the incubation period and subtracting the current from the previous recording period and then expressing this as a percentage of the baseline current (% potentiation). For test compound concentration 1 in FIG. 1 this is:
For each additional concentration tested the increase in current was determined by subtracting the current from the previous incubation period and normalising the baseline value—for test concentration 2 in FIG. 1 this is:
The values for each test concentration were plotted as a cumulative function of concentration eg. for test concentration two this would be the sum of the peak changes measured during concentration one plus concentration two.
Background: The patch-clamp technique gives a direct electrical read-out from membranes.

One may read the EC50 as the concentration giving half of the maximal effect.

On to `CC(C#N)(CO)NC(=O)c1cc(NC(=O)Cc2cc(O)c(C(C)(C)C)cc2F)ccn1` (stereo not shown) [Example 1.6], for which the activation at 3.33 µM worked out at 121% and the EC50 worked out at 40 nM.

For the compound `CC(C)(C#N)NC(=O)c1cc(NC(=O)Cc2cc(O)c(C(C)(C)O)cc2F)ccn1` [Example 2.1, N-(1-Cyano-1-methyl-ethyl)-4-[[2-[2-fluoro-5-hydroxy-4-(1-hydroxy-1-methyl-ethyl)phenyl]acetyl]amino]pyridine-2-carboxamide], the activation at 3.33 µM came out at 350% and the EC50 came out at 466 nM.

`CC(O)(c1cc(F)c(CC(=O)Nc2ccnc(C(=O)NC3(C(F)(F)F)CC3)c2)cc1O)C1CC1` (stereo not shown) [Example 2.8, 4-[[2-[4-(1-Cyclopropyl-1-hydroxy-ethyl)-2-fluoro-5-hydroxy-phenyl]acetyl]amino]-N-[1-(trifluoromethyl)cyclopropyl]pyridine-2-carboxamide]: the activation at 3.33 µM is 302% and the EC50 turned out to be 77 nM.

As to `N#CC1(c2cc(F)c(CC(=O)Nc3ccnc(C(=O)NC4(C(F)(F)F)CC4)c3)cc2O)CCOCC1` [Example 2.9, 4-[[2-[4-(4-Cyanotetrahydropyran-4-yl)-2-fluoro-5-hydroxy-phenyl]acetyl]amino]-N-[1-(trifluoromethyl)cyclopropyl]pyridine-2-carboxamide], the activation at 3.33 µM came out at 295% and the EC50 was 149 nM.

`Cc1cc(C(C)(C)O)c(O)cc1CC(=O)Nc1ccnc(C(=O)NC2(C(F)(F)F)CC2)c1` [Example 2.12, 4-[[2-[5-Hydroxy-4-(1-hydroxy-1-methyl-ethyl)-2-methyl-phenyl]acetyl]amino]-N-[1-(trifluoromethyl)cyclopropyl]pyridine-2-carboxamide]: the activation at 3.33 µM is 209% and the EC50 was determined as 42 nM.

For `O=C(Cc1cc(O)c(C2(CO)CCOCC2)cc1F)Nc1ccnc(C(=O)NC2(C(F)(F)F)CC2)c1` [Example 2.15, 4-[[2-[2-Fluoro-5-hydroxy-4-[4-(hydroxymethyl)tetrahydropyran-4-yl]phenyl]acetyl]amino]-N-[1-(trifluoromethyl)cyclopropyl]pyridine-2-carboxamide], the activation at 3.33 µM was determined as 413% and the EC50 was 279 nM.

Regarding `O=C(Cc1cc(O)c(C2(CO)CC2)cc1F)Nc1ccnc(C(=O)NC2(C(F)(F)F)CC2)c1` [Example 2.16, 4-[[2-[2-Fluoro-5-hydroxy-4-[1-(hydroxymethyl)cyclopropyl]phenyl]acetyl]amino]-N-[1-(trifluoromethyl)cyclopropyl]pyridine-2-carboxamide], the activation at 3.33 µM stood at 227% and the EC50 turned out to be 76 nM.

For the compound `CC(C)(C)NC(=O)c1cc(NC(=O)Cc2cc(O)c(C(C)(C)O)cc2F)ccn1` [Example 7, N-tert-Butyl-4-[[2-[2-fluoro-5-hydroxy-4-(1-hydroxy-1-methyl-ethyl)phenyl]acetyl]amino]pyridine-2-carboxamide], the activation at 3.33 µM amounted to 83.6% and the EC50 worked out at 68 nM.

`CC(C)(CO)c1cc(F)c(CC(=O)Nc2ccnc(C(=O)NC3(C#N)CCOCC3)c2)cc1O` [Example 12, N-(4-Cyanotetrahydropyran-4-yl)-4-[[2-[2-fluoro-5-hydroxy-4-(2-hydroxy-1,1-dimethyl-ethyl)phenyl]acetyl]amino]pyridine-2-carboxamide]: the activation at 3.33 µM amounted to 150% and the EC50 worked out at 118 nM.

For the compound `CC(C)(CO)c1cc(F)c(CC(=O)Nc2ccnc(C(=O)NC3(C(F)(F)F)COC3)c2)cc1O` [Example 12.1, 4-[[2-[2-Fluoro-5-hydroxy-4-(2-hydroxy-1,1-dimethyl-ethyl)phenyl]acetyl]amino]-N-[3-(trifluoromethyl)oxetan-3-yl]pyridine-2-carboxamide], the activation at 3.33 µM was 406% and the EC50 came out at 52 nM.

With `CC(C)(CO)NC(=O)c1cc(NC(=O)Cc2cc(O)c(C(C)(C)CO)cc2F)ccn1` [Example 12.3, 4-[[2-[2-Fluoro-5-hydroxy-4-(2-hydroxy-1,1-dimethyl-ethyl)phenyl]acetyl]amino]-N-(2-hydroxy-1,1-dimethyl-ethyl)pyridine-2-carboxamide], the activation at 3.33 µM is 97.2% and the EC50 amounted to 238 nM.

In the case of `CC(C)(CO)c1cc(F)c(CC(=O)Nc2ccnc(C(=O)NC3(CO)CCC3)c2)cc1O` [Example 12.4, 4-[[2-[2-Fluoro-5-hydroxy-4-(2-hydroxy-1,1-dimethyl-ethyl)phenyl]acetyl]amino]-N-[1-(hydroxymethyl)cyclobutyl]pyridine-2-carboxamide], the activation at 3.33 µM turned out to be 342% and the EC50 is 214 nM.

Regarding `O=C(Cc1cc(O)c(C2(O)CCOCC2)cc1F)Nc1ccnc(C(=O)NC2(C(F)(F)F)CC2)c1` [Example 13, 4-[[2-[2-Fluoro-5-hydroxy-4-(4-hydroxytetrahydropyran-4-yl)phenyl]acetyl]amino]-N-[1-(trifluoromethyl)cyclopropyl]pyridine-2-carboxamide], the activation at 3.33 µM worked out at 196% and the EC50 amounted to 221 nM.

Turning to `CC1(NC(=O)c2cc(NC(=O)Cc3cc(O)c(C(C)(C)CO)cc3F)ccn2)CC(F)(F)C1` [Example 15, N-(3,3-Difluoro-1-methyl-cyclobutyl)-4-[[2-[2-fluoro-5-hydroxy-4-(2-hydroxy-1,1-dimethyl-ethyl)phenyl]acetyl]amino]pyridine-2-carboxamide], the activation at 3.33 µM turned out to be 113% and the EC50 turned out to be 14 nM.

On to `C#CC(C)(C)NC(=O)c1cc(NC(=O)Cc2cc(O)c(C(C)(C)CO)cc2Cl)ccn1` [Example 15.1, 4-[[2-[2-Chloro-5-hydroxy-4-(2-hydroxy-1,1-dimethyl-ethyl)phenyl]acetyl]amino]-N-(1,1-dimethylprop-2-ynyl)pyridine-2-carboxamide], for which the activation at 3.33 µM is 190% and the EC50 was 41 nM.

Regarding `CC(C)(CO)c1cc(F)c(CC(=O)Nc2ccnc(C(=O)NC3(C(F)F)CC3)c2)cc1O` [Example 15.4, N-[1-(Difluoromethyl)cyclopropyl]-4-[[2-[2-fluoro-5-hydroxy-4-(2-hydroxy-1,1-dimethyl-ethyl)phenyl]acetyl]amino]pyridine-2-carboxamide], the activation at 3.33 µM came out at 226% and the EC50 is 60 nM.

Take `C#CC(C)(C)NC(=O)c1cc(NC(=O)Cc2cc(O)c(C(C)(C)CO)cc2F)ccn1` [Example 16, N-(1,1-Dimethylprop-2-ynyl)-4-[[2-[2-fluoro-5-hydroxy-4-(2-hydroxy-1,1-dimethyl-ethyl)phenyl]acetyl]amino]pyridine-2-carboxamide]: the activation at 3.33 µM was 74.5% and the EC50 came to 19 nM.
